Tested on: HCV genotype 1b replicon
Experiment: HCV replicon assay (1b_Huh-Luc/Neo-ET cell line, luciferase readout)
Format: cell-based
Conditions: Hepatitis C virus, Huh-7, 72 h, read-out: Inhibition of HCV genotype 1b
Protocol: Biological activity of the compounds of the invention was determined using an HCV replicon assay. The 1b_Huh-Luc/Neo-ET cell line persistently expressing a bicistronic genotype 1b replicon in Huh 7 cells was obtained from ReBLikon GMBH. This cell line was used to test compound inhibition using luciferase enzyme activity readout as a measurement of compound inhibition of replicon levels.
On Day 1 (the day after plating), each compound is added in triplicate to the cells. Plates incubated for 72 h prior to running the luciferase assay. Enzyme activity was measured using a Bright-Glo Kit (cat. number E2620) manufactured by Promega Corporation. The following equation was used to generate a percent control value for each compound. % Control=(Average Compound Value/Average Control)*100
The EC50 value was determined using GraphPad Prism and the following equation: Y=Bottom+(Top−Bottom)/1+10^((Log IC50−X)*HillSlope))
EC50 values of compounds are repeated several times in the replicon assay.

Compound | EC50 [nM]
COC(=O)N[C@H](C(=O)N1CCC[C@H]1c1ncc(-c2ccc(-c3ccc4cc(-c5cnc([C@@H]6CCCN6C(=O)[C@H](NC(=O)OC)c6ccccc6)[nH]5)ccc4n3)c(F)c2)[nH]1)C1CCOCC1 [compound 129] | < 1
COC(=O)N[C@H](C(=O)N1CCC[C@H]1c1ncc(-c2ccc(-c3ccc4cc(-c5c[nH]c([C@@H]6CCCN6C(=O)[C@H](NC(=O)OC)c6ccccc6)n5)cnc4c3)cn2)[nH]1)C(C)C [compound 94] | < 1
COC(=O)N[C@H](C(=O)N1CCC[C@H]1c1ncc(-c2ccc3nc(-c4ccc(-c5cnc([C@@H]6CCCN6C(=O)[C@H](NC(=O)OC)c6ccccc6)[nH]5)cc4)oc3c2)[nH]1)C(C)C [compound 255] | < 1
COC(=O)N[C@H](C(=O)N1CCC[C@H]1c1ncc(-c2ccc(-c3ccc4cc(-c5c[nH]c([C@@H]6CCCN6C(=O)[C@H](NC(=O)NC6CC6)c6ccccc6)n5)ccc4n3)cc2)[nH]1)C(C)C [compound 38] | < 1
COC(=O)N[C@H](C(=O)N1CCC[C@H]1c1nc2ccc(-c3ccc4cc(-c5cnc([C@@H]6CCCN6C(=O)[C@@H](c6ccccc6)N(C)C)[nH]5)ccc4c3)cc2[nH]1)C(C)C [compound 182] | < 1
COC(=O)N[C@H](C(=O)N1CCC[C@H]1c1ncc(-c2ccc(-c3nc4ccc(-c5cnc([C@@H]6CCCN6C(=O)[C@@H](NC(=O)OC)C(C)C)[nH]5)cc4n3C)cc2)[nH]1)C(C)C [compound 231] | < 1
COC(=O)N[C@H](C(=O)N1CCC[C@H]1c1nc(-c2ccc3cc(-c4ccc(-c5cnc([C@@H]6CCCN6C(=O)[C@@H](NC(=O)OC6CCOCC6)c6ccccc6)[nH]5)cc4)ccc3c2)c[nH]1)C1CCOCC1 [compound 112] | < 1
c1cc2nc(C34CCC(c5cnc([C@@H]6CCCN6)[nH]5)(CC3)CC4)ccc2cc1-c1c[nH]c([C@@H]2CCCN2)n1 [compound 267] | > 1000
COC(=O)N[C@H](C(=O)N1CCC[C@H]1c1nc(-c2ccc3nc(-c4ccc(-c5cnc([C@@H]6CCCN6C(=O)[C@@H](NC(=O)OC)C(C)C)[nH]5)cc4)cc(OC)c3c2)c[nH]1)C(C)C [compound 79] | < 1
COC(=O)N[C@H](C(=O)N1CCC[C@H]1c1nc(-c2cnc3cc(-c4ccc(-c5cnc([C@@H]6CCCN6C(=O)[C@@H](NC(=O)OC)C6CCOCC6)[nH]5)cn4)ccc3c2)c[nH]1)C1CCOCC1 [compound 75] | < 1
COC(=O)N[C@H](C(=O)N1CCC[C@H]1c1nc2ccc(-c3cccc4c(-c5cnc([C@@H]6CCCN6C(=O)[C@H](NC(=O)OC)c6ccccc6)[nH]5)cccc34)cc2[nH]1)C(C)C [compound 208] | < 1
COC(=O)N[C@H](C(=O)N1CCC[C@H]1c1ncc(-c2ccc(-c3ccc4cc(-c5c[nH]c([C@@H]6CCCN6C(=O)[C@H](NC(=O)OC(C)(C)C)c6ccccc6)n5)ccc4n3)cc2)[nH]1)C(C)C [compound 35] | < 1
COC(=O)N[C@H](C(=O)N1CCC[C@H]1c1nc2ccc(-c3ccc4cc(-c5ccc6nc([C@@H]7CCCN7C(=O)[C@@H](NC(=O)OC)C7CCOCC7)[nH]c6c5)ccc4c3)cc2[nH]1)C(C)C [compound 282] | < 1
COC(=O)N[C@@H](C)C(=O)N1CCC[C@H]1c1nc(-c2ccc3c(c2)CCN(c2c(F)cc(-c4cnc([C@@H]5CCCN5C(=O)[C@H](C)NC(=O)OC)[nH]4)cc2F)C3)c[nH]1 [compound 272] | < 1
COC(=O)N[C@H](C(=O)N1CCC[C@H]1c1ncc(-c2ccc3cc(-c4ccc5nc([C@@H]6CCCN6C(=O)[C@@H](NC(=O)OC)C(C)C)[nH]c5n4)ccc3c2)[nH]1)C(C)C [compound 198] | < 1
COC(=O)N[C@H](C(=O)N1CCC[C@H]1c1ncc(-c2ccc(-c3nc4ccc(-c5cnc([C@@H]6CCCN6C(=O)[C@H](NC(=O)OC)c6ccccc6)[nH]5)cc4s3)cc2)[nH]1)C(C)C [compound 241] | < 1
COC(=O)N[C@H](C(=O)N1CCC[C@H]1c1ncc(-c2ccc(-c3ccc4cc(-c5cnc([C@@H]6CCCN6C(=O)[C@H](NC(=O)OC)c6ccccc6)[nH]5)ccc4n3)c(F)c2)[nH]1)C(C)C [compound 119] | < 1
COC(=O)N[C@H](C(=O)N1CCC[C@H]1c1nc(-c2cnc3cc(-c4ccc(-c5cnc([C@@H]6CCCN6C(=O)[C@@H](NC(=O)OC)C6CCOCC6)[nH]5)cn4)ccc3c2)c[nH]1)C(C)C [compound 62] | < 1
COC(=O)N[C@H](C(=O)N1CCC[C@H]1c1ncc(-c2ccc(-c3nc4cc(-c5cnc([C@@H]6CCCN6C(=O)[C@@H](NC(=O)OC)C(C)C)[nH]5)ccc4s3)cc2)[nH]1)C(C)C [compound 240] | < 1
CCNC(=O)N[C@@H](C(=O)N1CCC[C@H]1c1ncc(-c2ccc3nc(-c4ccc(-c5cnc([C@@H]6CCCN6C(=O)[C@@H](NC(=O)OC)C(C)C)[nH]5)cc4)oc3c2)[nH]1)c1ccccc1 [compound 252] | < 1

Compound | EC50 [nM]
COC(=O)N[C@H](C(=O)N1CCC[C@H]1c1nc2ccc(-c3ccc4cc(-c5cnc([C@@H]6CCCN6C(=O)[C@@H](NC(=O)OC)C6CCOCC6)[nH]5)cnc4c3)cc2[nH]1)C(C)C [compound 191] | < 1
COC(=O)N[C@H](C(=O)N1CCC[C@H]1c1ncc(-c2ccc(-c3cc4ccc(-c5cnc([C@@H]6CCCN6C(=O)[C@@H](NC(=O)OC)C(C)C)[nH]5)cc4cn3)c(F)c2)[nH]1)C(C)C [compound 150] | < 1
COC(=O)N[C@H](C(=O)N1CCC[C@H]1c1nc(-c2ccc3cc(-c4ccc(-c5cnc([C@@H]6CCCN6C(=O)[C@H](NC(=O)OC)c6ccccc6)[nH]5)cc4)ncc3c2)c[nH]1)C1CCOCC1 [compound 100] | < 1
COC(=O)N[C@H](C(=O)N1CCC[C@H]1c1nc2ccc(-c3ccc4cc(-c5cnc([C@@H]6CCCN6C(=O)[C@H](NC(=O)OC)c6ccccc6)[nH]5)ccc4n3)cc2[nH]1)C(C)C [compound 196] | < 1
COC(=O)N[C@H](C(=O)N1C[C@H](O)C[C@H]1c1ncc(-c2ccc(-c3ccc4cc(-c5cnc([C@@H]6CCCN6C(=O)[C@H](NC(=O)OC6CCOCC6)c6ccccc6)[nH]5)ccc4n3)cc2)[nH]1)C(C)C [compound 149] | < 1
COC(=O)N[C@H](C(=O)N1CCC[C@H]1c1ncc(-c2ccc(-c3ccc4cc(-c5c[nH]c([C@@H]6CCCN6C(=O)[C@H](NC(=O)NC6CC6)c6ccccc6)n5)ccc4c3)cc2)[nH]1)C(C)C [compound 29] | < 1
COC(=O)N[C@H](C(=O)N1CCC[C@H]1c1nc(-c2ccc3c(c2)CCN(c2c(F)cc(-c4cnc([C@@H]5CCCN5C(=O)[C@@H](NC(=O)OC)C5CC5)[nH]4)cc2F)C3)c[nH]1)C1CC1 [compound 271] | < 1
COC(=O)N[C@@H](C(=O)N1CCC[C@H]1c1ncc(-c2ccc(-c3nc4cc(-c5cnc([C@@H]6CCCN6C(=O)[C@H](NC(=O)OC)c6ccccc6)[nH]5)ccc4n3C)cc2)[nH]1)c1ccccc1 [compound 233] | < 1
COC(=O)N[C@H](C(=O)N1CCC[C@H]1c1ncc(-c2ccc(-c3ccc4cc(-c5c[nH]c([C@@H]6CCCN6C(=O)[C@H](NC(=O)OC)c6ccccc6)n5)ccc4c3)c(F)c2)[nH]1)C1CCOCC1 [compound 106] | < 1
COC(=O)N[C@H](C(=O)N1CCC[C@H]1c1ncc(-c2ccc(-c3ccc4cc(-c5c[nH]c([C@@H]6CCCN6C(=O)[C@@H](NC(=O)OC)C6CCOCC6)n5)cnc4c3)c(F)c2)[nH]1)C(C)C [compound 59] | < 1
COC(=O)N[C@H](C(=O)N1CCC[C@H]1c1ncc(-c2ccc(-c3ccc4cc(-c5c[nH]c([C@@H]6CCCN6C(=O)[C@H](NC(=O)OC(C)(C)C)c6ccccc6)n5)cnc4c3)nc2)[nH]1)C(C)C [compound 82] | < 1
COC(=O)N[C@H](C(=O)N1CCC[C@H]1c1ncc(-c2ccc3cc(-c4ccc5nc([C@@H]6CCCN6C(=O)[C@@H](NC(=O)OC)C(C)C)[nH]c5c4)ccc3n2)[nH]1)C(C)C [compound 209] | < 1
CNC(=O)N[C@@H](C(=O)N1CCC[C@H]1c1ncc(-c2ccc3nc(-c4ccc(-c5cnc([C@@H]6CCCN6C(=O)[C@@H](NC(=O)OC)C(C)C)[nH]5)cc4)sc3c2)[nH]1)c1ccccc1 [compound 245] | < 1
COC(=O)N[C@H](C(=O)N1CCC[C@H]1c1nc(-c2cnc3cc(-c4ccc(-c5cnc([C@@H]6CCCN6C(=O)[C@H](NC(=O)OC6CCOCC6)c6ccccc6)[nH]5)cc4)ccc3c2)c[nH]1)C1CCOCC1 [compound 89] | < 1
COC(=O)N[C@H](C(=O)N1CCC[C@H]1c1nc(-c2ccc3nc(-c4ccc(-c5cnc([C@@H]6CCCN6C(=O)[C@@H](NC(=O)OC)C6CCOCC6)[nH]5)c(F)c4)ccc3c2)c[nH]1)C1CCOCC1 [compound 108] | < 1
COC(=O)N[C@H](C(=O)N1CCC[C@H]1c1ncc(-c2ccc(-c3nc4ccc(-c5cnc([C@@H]6CCCN6C(=O)[C@@H](NC(=O)OC)C(C)C)[nH]5)cc4o3)cc2)[nH]1)C(C)C [compound 234] | < 1
COC(=O)N[C@@H](C(=O)N1CCC[C@H]1c1nc(-c2ccc3nc(-c4ccc(-c5cnc([C@@H]6CCCN6C(=O)[C@H](NC(=O)OC)c6ccccc6)[nH]5)nc4)ccc3c2)c[nH]1)c1ccccc1 [compound 54] | < 1
COC(=O)N[C@@H](C(=O)N1CCC[C@H]1c1nc(-c2ccc3nc(-c4ccc(-c5cnc([C@@H]6CCCN6C(=O)[C@H](NC(=O)OC)c6ccccc6)[nH]5)cc4F)ccc3c2)c[nH]1)c1ccccc1 [compound 97] | < 1
COC(=O)N[C@H](C(=O)N1CCC[C@H]1c1ncc(-c2ccc(-c3ccc4cc(-c5c[nH]c([C@@H]6CCCN6C(=O)[C@H](NC(=O)OC)c6ccccc6)n5)ccc4c3)c(C)c2)[nH]1)C(C)C [compound 87] | < 1
COC(=O)N[C@H](C(=O)N1CCC[C@H]1c1nc(-c2ccc3cc(-c4ccc(-c5cnc([C@@H]6CCCN6C(=O)[C@H](NC(=O)OC)c6ccccc6)[nH]5)cc4)ccc3c2)c[nH]1)C1CCOCC1 [compound 99] | < 1
